Results: US6274718A (priority 2000, dated 2001)
Where a SMILES comes first, the peptide text is derived from it.

B1: soybean trypsin inhibitor: soybean trypsin inhibitor (SBTI) (protein, UniProt P01070 25-205, looked up)
Trypsin inhibitor A: DFVLDNEGNPLENGGTYYILSDITAFGGIRAAPTGNERCPLTVVQSRNELDKGIGTIISSPYRIRFIAEGHPLSLKFDSFAVIMLCVGIPTEWSVVEDLPEGPAVKIGENKDAMDGWFRLERVSDDEFNNYKLVFCPQQAEDDKCGDIGISIDHDDGTRRLVVSKNKPLVVQFQKLDKESL

Legend:
gingipain-1 [1] = target: gingipain-1 (Porphyromonas gingivalis, UniProt P28784); assay: biochemical; type: biochemical; conditions: for activity at 100 µM / activity at 1000 µM / activity at 10000 µM: pH 7.5, read-out: Activity -Gly-Gly; for stimulation of amidolytic activity: thiol / reducing compounds; for Activity +Gly-Gly: 0.1 mM compound, 50 mM Gly-Gly
gingipain-1 [2] = assay: biochemical; type: biochemical, Porphyromonas gingivalis; conditions: Sephadex G-150 peak fractions
guinea pig skin = type: in vivo; conditions: 10^-5 M

Chain of gingipain-1 (Porphyromonas gingivalis, UniProt P28784) (P28784 228-719): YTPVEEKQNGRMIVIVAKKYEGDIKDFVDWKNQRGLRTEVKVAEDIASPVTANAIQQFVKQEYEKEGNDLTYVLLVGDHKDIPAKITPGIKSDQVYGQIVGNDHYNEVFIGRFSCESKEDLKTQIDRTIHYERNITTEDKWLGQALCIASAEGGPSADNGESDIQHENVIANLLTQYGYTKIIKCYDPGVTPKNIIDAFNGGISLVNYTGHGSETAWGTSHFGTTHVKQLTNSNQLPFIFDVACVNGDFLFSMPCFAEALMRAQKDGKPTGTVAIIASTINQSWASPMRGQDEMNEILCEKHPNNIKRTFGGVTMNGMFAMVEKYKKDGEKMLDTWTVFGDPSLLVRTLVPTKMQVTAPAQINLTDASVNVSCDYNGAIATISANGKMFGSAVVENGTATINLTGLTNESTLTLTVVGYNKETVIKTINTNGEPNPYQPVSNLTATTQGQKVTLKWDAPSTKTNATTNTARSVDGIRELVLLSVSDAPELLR

| Molecule | activity at 100 µM (gingipain-1 [1]) | Activity +Gly-Gly (gingipain-1 [1]) | activity at 1000 µM (gingipain-1 [1]) | activity at 10000 µM (gingipain-1 [1]) | also measured |
| --- | --- | --- | --- | --- | --- |
| N[C@@H](CS)C(=O)O [Cysteine] | 685% |  |  |  | stimulation of amidolytic activity (gingipain-1 [1]): most efficient |
| NCCS [cysteamine] |  |  |  |  | stimulation of amidolytic activity (gingipain-1 [1]): most efficient |
| OCCS [Mercaptoethanol] | 165% | 627% | 456% | 685% |  |
| NCC(=O)NCC(=O)O [Gly-Gly, glycyl-glycine] (H-Gly-Gly-OH) |  |  |  |  | enhancement of Bz-L-Arg-pNA hydrolytic activity (gingipain-1 [2]): enhanced many-fold |
| NCC(=O)O [glycine] |  |  |  |  | effect of glycine and glycine analogues on kcat/Km (gingipain-1 [1]; preliminary kinetic data, kcat and Km both raised equally): kcat /Km ratio does not change |
| O[C@H](CS)[C@H](O)CS (racemic) [Dithiothreitol] | 159% | 636% | 432% | 685% |  |
| N[C@@H](CCC(=O)N[C@@H](CS)C(=O)NCC(=O)O)C(=O)O [Glutathione] | 208% | 853% | 593% | 770% |  |
| NCC(N)=O [glycine amide] |  |  |  |  | enhancement of Bz-L-Arg-pNA hydrolytic activity (gingipain-1 [2]): enhanced many-fold |
| B1 |  |  |  |  | inhibition of vascular permeability enhancement (guinea pig skin): inhibited |
